Converted amounts (≈) assume the structure as drawn. Read-outs that look alike come from different tables or passages of the source.
What was measured:
Assay in all cases: Broth microdilution MIC/MFC, clinical isolate
Assay type in all cases: cell-based
[1] = tested on: C. glabrata; details: C. glabrata clinical strain
Source text: (§1) In the study of antifungal activity of the compounds 3a–3j, 15 clinical strains of different species of yeasts from Candida species, namely C. albicans, C. dubliniensis C. famata, C. inconspicua, C. krusei, C. tropicalis, C. glabrata, C. lambica, C. kefyr, C. lusitaniae, C. parapsilosis, C. guilliermondii, C. lusitaniae, C. pulcherrima and C. sake were also used. These fungi were isolated by the author (from Department of Pharmaceutical Microbiology of Medical University in Lublin, Poland) from different clinical materials, e.g., from upper respiratory tract of hospitalized patients including cancer patients (i.e., with non-small cell lung cancer or hematological malignancies). Some patients were after pre-operative or post-operative chemotherapy (treated with etoposide or cis-platin given in doses according to the standard procedures), patients with chronic hepatitis C (undergoing peginterferon and ribavirin therapy or without antiviral therapy), patients with diabetes, elderly people, aged of 65 years old or older, staying in close population, such as a care centre and people staying outside the home care. The Ethical Committee of the Medical University of Lublin approved the study protocol (No. KE-0254/75/2011). The isolates were identified by standard diagnostic methods—biochemical microtest, e.g., API 20C AUX, ID 32C, API Candida (bioMérieux) on the basis of assimilation of various substrates. All the used microbial cultures were first subcultured on nutrient agar or Sabouraud agar for bacteria and fungi, respectively. The RPMI 1640 with MOPS (for fungi) were inoculated with the suspensions of fungal species. Microbial suspensions were prepared in sterile saline (0.85% NaCl) with an optical density of 0.5 McFarland standard scale (Wiegand et al. [2008]). Samples containing examined compounds were dissolved in dimethyl sulfoxide (DMSO). Furthermore, fungal suspensions were put onto Petri dishes with solid media containing 2 mg/ml of the tested compounds followed incubation under appropriate conditions. The inhibition of microbial growth was judged by comparison with a control culture prepared without any sample tested. Nystatin (Sigma) was used as a reference antifungal compound. Subsequently MIC minimal inhibitory concentration (MIC) of the compounds was examined by the microdilution broth method, using their two-fold dilutions in RPMI 1640 broth with MOPS prepared in 96-well polystyrene plates. Final concentrations of the compounds ranged from 1000 to 0.0038 µg/ml. Microbial suspensions were prepared in sterile saline with an optical density of 0.5 McFarland standard. Next fungal suspension was added per each well containing broth and various concentrations of the examined compounds. After incubation, the MIC was assessed spectrophotometric as the lowest concentration of the samples showing complete fungal growth inhibition. Appropriate DMSO, growth and sterile controls were carried out. The medium with no tested substances was used as a control (Wiegand et al. [2008]). The minimal fungicidal concentration (MFC) are defined as the lowest concentration of the compounds that is required to kill a particular fungal species. MFC was determined by removing the culture using for MIC determinations from each well and spotting onto appropriate agar medium. The plates were incubated. The lowest compounds concentration with no visible growth observed was assessed as a fungicidal concentration. All the experiments were repeated three times and representative data are presented.
(§2) The MFC/MIC ratios were calculated in order to determine fungicidal (MFC/MIC ≤ 4) or fungistatic (MFC/MIC > 4) effect of the tested compounds (O’Donnell et al. [2010]).

[2] = tested on: C. dubliniensis; details: C. dubliniensis clinical strain
Source text: as §1, §2

[3] = tested on: C. lusitaniae; details: C. lusitaniae clinical strain
Source text: as §1, §2

[4] = tested on: C. parapsilosis; details: C. parapsilosis clinical strain
Source text: as §1, §2

[5] = tested on: C. sake; details: C. sake clinical strain
Source text: as §1, §2

[6] = tested on: C. tropicalis; details: C. tropicalis clinical strain
Source text: as §1, §2

[7] = tested on: C. inconspicua; details: C. inconspicua clinical strain
Source text: as §1, §2

[8] = tested on: C. krusei; details: C. krusei clinical strain
Source text: as §1, §2

[9] = tested on: C. lambica; details: C. lambica clinical strain
Source text: as §1, §2

[10] = tested on: C. kefyr; details: C. kefyr clinical strain
Source text: as §1, §2

[11] = tested on: C. famata; details: C. famata clinical strain
Source text: as §1, §2

[12] = tested on: C. albicans; details: C. albicans clinical strain
Source text: as §1, §2

[13] = tested on: C. guilliermondii; details: C. guilliermondii clinical strain
Source text: as §1, §2

[14] = tested on: C. pulcherrima; details: C. pulcherrima clinical strain
Source text: as §1, §2

[15] = Nakaseomyces glabratus, read-out: MFC
[16] = Nakaseomyces glabratus, read-out: MIC
[17] = Candida dubliniensis, read-out: MFC
[18] = Candida dubliniensis, read-out: MIC
[19] = Clavispora lusitaniae, read-out: MFC
[20] = Clavispora lusitaniae, read-out: MIC
[21] = Lodderomyces parapsilosis, read-out: MFC
[22] = Lodderomyces parapsilosis, read-out: MIC
[23] = Fermentozyma sake, read-out: MFC
[24] = Fermentozyma sake, read-out: MIC
[25] = Candida tropicalis, read-out: MFC
[26] = Candida tropicalis, read-out: MIC
[27] = Pichia inconspicua, read-out: MFC
[28] = Pichia inconspicua, read-out: MIC
[29] = Pichia kudriavzevii, read-out: MFC
[30] = Pichia kudriavzevii, read-out: MIC
[31] = Pichia fermentans, read-out: MFC
[32] = Pichia fermentans, read-out: MIC
[33] = Kluyveromyces marxianus, read-out: MFC
[34] = Kluyveromyces marxianus, read-out: MIC
[35] = Debaryomyces hansenii, read-out: MFC
[36] = Debaryomyces hansenii, read-out: MIC
[37] = Candida albicans, read-out: MFC
[38] = Candida albicans, read-out: MIC
[39] = Meyerozyma guilliermondii, read-out: MFC
[40] = Meyerozyma guilliermondii, read-out: MIC

Clc1ccc(-c2csc(N/N=C/C3CC3)n2)cc1 [Compound 3c, (E)-4-(4-Chlorophenyl)-2-(2-(cyclopropylmethylene)hydrazinyl)thiazole]
MFC [1, 15]: > 1000 µg/mL
MIC [1, 16]: 500 µg/mL (≈ 1800 µM)
MFC [2, 17]: 0.06 µg/mL (≈ 0.216 µM)
MIC [2, 18]: 0.03 µg/mL (≈ 0.108 µM)
MFC [3, 19]: 0.12 µg/mL (≈ 0.432 µM)
MIC [3, 20]: 0.12 µg/mL (≈ 0.432 µM)
MFC [4, 21]: 0.12 µg/mL (≈ 0.432 µM)
MIC [4, 22]: 0.03 µg/mL (≈ 0.108 µM)
MFC [5, 23]: 0.98 µg/mL (≈ 3.53 µM)
MIC [5, 24]: 0.12 µg/mL (≈ 0.432 µM)
MFC [6, 25]: 0.12 µg/mL (≈ 0.432 µM)
MIC [6, 26]: 0.12 µg/mL (≈ 0.432 µM)
MFC [7, 27]: 3.91 µg/mL (≈ 14.1 µM)
MIC [7, 28]: 0.98 µg/mL (≈ 3.53 µM)
MFC [8, 29]: 0.48 µg/mL (≈ 1.73 µM)
MIC [8, 30]: 0.12 µg/mL (≈ 0.432 µM)
MFC [9, 31]: > 1000 µg/mL
MIC [9, 32]: 125 µg/mL (≈ 450 µM)
MFC [10, 33]: > 1000 µg/mL
MIC [10, 34]: 31.2 µg/mL (≈ 112 µM)
MFC [11, 35]: 0.98 µg/mL (≈ 3.53 µM)
MIC [11, 36]: 0.12 µg/mL (≈ 0.432 µM)
MFC [12, 37]: 0.98 µg/mL (≈ 3.53 µM)
MIC [12, 38]: 0.06 µg/mL (≈ 0.216 µM)
MFC [13, 39]: 0.98 µg/mL (≈ 3.53 µM)
MIC [13, 40]: 0.24 µg/mL (≈ 0.864 µM)
MFC ([14]; read-out: MFC): > 1000 µg/mL
MIC ([14]; read-out: MIC): 125 µg/mL (≈ 450 µM)

Fc1ccc(-c2csc(N/N=C/C3CC3)n2)c(F)c1 [Compound 3g, (E)-2-(2-(Cyclopropylmethylene)hydrazinyl)-4-(2,4-difluorophenyl)thiazole]
MFC [1, 15]: > 1000 µg/mL
MIC [1, 16]: 15.6 µg/mL (≈ 55.9 µM)
MFC [2, 17]: 0.48 µg/mL (≈ 1.72 µM)
MIC [2, 18]: 0.24 µg/mL (≈ 0.859 µM)
MFC [3, 19]: 1.95 µg/mL (≈ 6.98 µM)
MIC [3, 20]: 0.48 µg/mL (≈ 1.72 µM)
MFC [4, 21]: 1.95 µg/mL (≈ 6.98 µM)
MIC [4, 22]: 0.98 µg/mL (≈ 3.51 µM)
MFC [5, 23]: 3.91 µg/mL (≈ 14 µM)
MIC [5, 24]: 0.48 µg/mL (≈ 1.72 µM)
MFC [6, 25]: 0.98 µg/mL (≈ 3.51 µM)
MIC [6, 26]: 0.06 µg/mL (≈ 0.215 µM)
MFC [7, 27]: 1.98 µg/mL (≈ 7.09 µM)
MIC [7, 28]: 0.48 µg/mL (≈ 1.72 µM)
MFC [8, 29]: 0.48 µg/mL (≈ 1.72 µM)
MIC [8, 30]: 0.03 µg/mL (≈ 0.107 µM)
MFC [9, 31]: > 1000 µg/mL
MIC [9, 32]: 125 µg/mL (≈ 448 µM)
MFC [10, 33]: 31.2 µg/mL (≈ 112 µM)
MIC [10, 34]: 31.2 µg/mL (≈ 112 µM)
MFC [11, 35]: 62.5 µg/mL (≈ 224 µM)
MIC [11, 36]: 7.81 µg/mL (≈ 28 µM)
MFC [12, 37]: 1.95 µg/mL (≈ 6.98 µM)
MIC [12, 38]: 0.48 µg/mL (≈ 1.72 µM)
MFC [13, 39]: 31.2 µg/mL (≈ 112 µM)
MIC [13, 40]: 7.81 µg/mL (≈ 28 µM)
MFC ([14]; read-out: MFC): > 1000 µg/mL
MIC ([14]; read-out: MIC): 250 µg/mL (≈ 895 µM)

C[C@@H]1[C@H](O)[C@@H](C)/C=C/C=C/CC/C=C/C=C/C=C/C=C/C(O[C@H]2O[C@H](C)[C@@H](O)[C@H](N)[C@@H]2O)CC2O[C@](O)(CC(O)C(O)CCC(O)CC(O)CC(O)CC(=O)O[C@H]1C)CC(O)C2C(=O)O (some centres unmarked) [Nystatin, reference compound]
MFC [1]: 0.48 µg/mL (≈ 0.518 µM)
MFC/MIC [1]: 1
MIC [1]: 0.48 µg/mL (≈ 0.518 µM)
MFC [2]: 0.12 µg/mL (≈ 0.13 µM)
MFC/MIC [2]: 1
MIC [2]: 0.12 µg/mL (≈ 0.13 µM)
MFC [3]: 0.24 µg/mL (≈ 0.259 µM)
MFC/MIC [3]: 2
MIC [3]: 0.12 µg/mL (≈ 0.13 µM)
MFC [4]: 0.48 µg/mL (≈ 0.518 µM)
MFC/MIC [4]: 4
MIC [4]: 0.12 µg/mL (≈ 0.13 µM)
MFC [5]: 0.12 µg/mL (≈ 0.13 µM)
MFC/MIC [5]: 2
MIC [5]: 0.06 µg/mL (≈ 0.0648 µM)
MFC [6]: 0.06 µg/mL (≈ 0.0648 µM)
MFC/MIC [6]: 4
MIC [6]: 0.015 µg/mL (≈ 0.0162 µM)
MFC [7]: 0.48 µg/mL (≈ 0.518 µM)
MFC/MIC [7]: 4
MIC [7]: 0.12 µg/mL (≈ 0.13 µM)
MFC [8]: 0.98 µg/mL (≈ 1.06 µM)
MFC/MIC [8]: 4
MIC [8]: 0.24 µg/mL (≈ 0.259 µM)
MFC [9]: 0.98 µg/mL (≈ 1.06 µM)
MFC/MIC [9]: 2
MIC [9]: 0.48 µg/mL (≈ 0.518 µM)
MFC [10]: 0.24 µg/mL (≈ 0.259 µM)
MFC/MIC [10]: 2
MIC [10]: 0.12 µg/mL (≈ 0.13 µM)
MFC [11]: 0.12 µg/mL (≈ 0.13 µM)
MFC/MIC [11]: 2
MIC [11]: 0.06 µg/mL (≈ 0.0648 µM)
MFC [12]: 0.24 µg/mL (≈ 0.259 µM)
MFC/MIC [12]: 1
MIC [12]: 0.24 µg/mL (≈ 0.259 µM)
MFC [13]: 0.12 µg/mL (≈ 0.13 µM)
MFC/MIC [13]: 2
MIC [13]: 0.06 µg/mL (≈ 0.0648 µM)
MFC [14]: 0.24 µg/mL (≈ 0.259 µM)
MFC/MIC [14]: 2
MIC [14]: 0.12 µg/mL (≈ 0.13 µM)

From article PMC6133161, “Thiazoles with cyclopropyl fragment as antifungal, anticonvulsant, and anti-Toxoplasma gondii agents: synthesis, toxicity evaluation, and molecular docking study” (Medicinal Chemistry Research, 2018)
